Assay results taken from ChEMBL document CHEMBL4359925, “Rational discovery of a highly novel and selective mTOR inhibitor” (Bioorg Med Chem Lett, 2019).

Assays:
[1] = target: Phosphatidylinositol 4,5-bisphosphate 3-kinase catalytic subunit alpha isoform (Homo sapiens, UniProt P42336); experiment: Inhibition of PI3K alpha (unknown origin)
[2] = target: Serine/threonine-protein kinase mTOR (Homo sapiens, UniProt P42345); experiment: Inhibition of human mTOR measured after 30 mins in presence of ATP by Lanthascreen TR-FRET assay

Sequence of Phosphatidylinositol 4,5-bisphosphate 3-kinase catalytic subunit alpha isoform (P42336 whole entry, canonical isoform): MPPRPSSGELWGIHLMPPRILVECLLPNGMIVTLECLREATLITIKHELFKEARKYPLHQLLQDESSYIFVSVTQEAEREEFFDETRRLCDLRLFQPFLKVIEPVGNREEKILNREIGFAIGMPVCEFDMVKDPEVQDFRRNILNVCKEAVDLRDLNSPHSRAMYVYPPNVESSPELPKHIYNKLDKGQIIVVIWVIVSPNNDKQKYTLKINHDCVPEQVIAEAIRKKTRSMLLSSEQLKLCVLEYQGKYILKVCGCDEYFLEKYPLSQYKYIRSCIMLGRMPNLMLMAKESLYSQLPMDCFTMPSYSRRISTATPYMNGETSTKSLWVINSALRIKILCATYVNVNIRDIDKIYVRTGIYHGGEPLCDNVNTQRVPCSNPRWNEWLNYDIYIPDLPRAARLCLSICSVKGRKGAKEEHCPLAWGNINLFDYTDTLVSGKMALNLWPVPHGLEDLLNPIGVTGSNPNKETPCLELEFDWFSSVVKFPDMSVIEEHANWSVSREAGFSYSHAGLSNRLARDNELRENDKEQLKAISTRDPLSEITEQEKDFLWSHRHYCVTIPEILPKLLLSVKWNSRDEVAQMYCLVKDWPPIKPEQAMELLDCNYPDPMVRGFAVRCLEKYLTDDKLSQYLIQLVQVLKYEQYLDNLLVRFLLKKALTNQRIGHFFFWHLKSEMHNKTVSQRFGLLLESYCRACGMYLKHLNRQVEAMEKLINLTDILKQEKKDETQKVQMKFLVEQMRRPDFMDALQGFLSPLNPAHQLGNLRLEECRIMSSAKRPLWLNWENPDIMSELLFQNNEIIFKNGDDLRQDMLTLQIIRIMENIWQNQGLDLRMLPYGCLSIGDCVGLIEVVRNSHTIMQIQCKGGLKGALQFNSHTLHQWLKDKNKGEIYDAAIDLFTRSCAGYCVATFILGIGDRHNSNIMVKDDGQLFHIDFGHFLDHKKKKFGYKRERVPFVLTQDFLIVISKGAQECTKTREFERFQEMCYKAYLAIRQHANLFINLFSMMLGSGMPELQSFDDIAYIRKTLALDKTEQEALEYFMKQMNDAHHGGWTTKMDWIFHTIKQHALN

Compound | IC50 [1] | IC50 [2]
CNC(=O)Nc1ccc(-c2ncc3c(n2)N2CCOC[C@@]2(C)C(=O)N3CC2CC2)cc1 | 79.4 nM | 7.94 nM
CNC(=O)Nc1ccc(-c2ncc3c(n2)N2CCOCC2CO3)cc1 (stereo not given) | 50.1 nM | 501 nM
CNC(=O)Nc1ccc(-c2ncc3c(n2)N2CCOCC2CC(=O)N3)cc1 (stereo not given) | 2510 nM | 1580 nM
CNC(=O)Nc1ccc(-c2nc(C)c3nc4n(c3n2)CCOC4)cc1 | 5010 nM | 5010 nM
C[C@@]12COCCN1c1nc(-c3ccc(NC(=O)NC4CC4)cc3)ncc1N(CC1CC1)C2=O | 794 nM | 6.31 nM
